Source: patent US9551722B2, “Amyloid binding agents” (The Regents of the University of California, priority 2009, dated 2017)
“And” between values parts separate entries of the source, which are not always exact repeats. Identical values can stand only once.

Columns and labels:
[1] = target: T1, pre-aggregated Aβ(1-42) peptide (Homo sapiens, UniProt P05067); test: Apparent binding constant (Kd) by double reciprocal fluorescence plot; details: compound 10, 5, 2.5, 1.25 μM; 5.0 μM pre-aggregated Aβ(1-42); PBS pH 7.4
T1 construct: preaggregated Aβ(1-42) peptides
T1 sequence (P05067 672-713 limits assumed): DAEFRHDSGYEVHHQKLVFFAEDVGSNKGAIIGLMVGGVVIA
Description: We also measured the apparent binding constants (Kd) of the compounds (in concentrations of 10, 5, 2.5 and 1.25 μM) to 5.0 μM pre-aggregated Aβ(1-42) peptide. The Kd can be measured from the double reciprocal of the fluorescent maximum and the concentration of the compound. See H. LeVine III, Protein Sci. 1993, 2:404-410. […] [22,] See LeVine, Id.; Lockhart, L. Ye, D. B. Judd, A. T. Merritt, P. N. Lowe, J. L. Morgenstern, G. Z. Hong, A. D. Gee, J. Brown, J. Biol. Chem. 2005, 280:7677-7684; M. Biancalana, K. Makabe, A. Koide, S. Koide, J. Mol. Biol. 2008, 383:205-213; M. Biancalana, K. Makabe, A. Koide, S. Koide, J. Mol. Biol. 2009, 385:1052-1063. The Kd corresponds to the −1/(x-intercept) of the linear regression.
Pre-aggregated Aβ(1-42) (5 μM final concentration) was mixed with various concentrations of compounds described herein (10, 5, 2.5, 1.25 μM) in PBS buffer (pH 7.4) and their fluorescence was measured. The negative inverse of the x-intercept of the linear regression, that was drawn between the double reciprocal of the fluorescence intensity maximum and concentration of the compound, represents the compound binding constant (Kd) to Aβ(1-42).
In order to quantify the dissociation constants (Kd's) for the binding of fluorescent compounds with aggregated β-amyloid peptides, we used the method described by LeVine (see H. LeVine III, Protein Sci. 1993, 2, 404-410). This method is similar to the method described by Benesi-Hildebran (see C. Yang, L. Liu, T. W. Mu, Q. X. Guo, Anal. Sci. 2000, 16, 537-539). Here, the fluorescence of the compound was measured with and without the addition of the aggregated peptides in solution. The relative fluorescence enhancement of the compound upon binding to aggregated β-amyloid peptides was determined by taking the difference between F (fluorescence after the addition of aggregated peptides) and F (fluorescence before the addition of aggregated peptides).
In order to estimate the binding constant (Kd) for the compound-Aβ complexes from the fluorescence studies, we made the following assumptions: • 1. All compounds are completely in solution and free of any significant competing binding process such as self-aggregation. • 2. The concentration of unbound compounds can be approximated as close to the total concentration of the compounds. • 3. The binding sites in the aggregated Aβ peptides are not completely occupied at the concentration of Aβ-binding compounds used for the fluorescence studies (i.e., the experiments are carried out under non-saturated binding conditions).
FIG. 2 and FIG. 6 provide double reciprocal plots of the measured fluorescence versus total concentration of compound [GO]. Assuming that [G] can be approximated as close to [GO] (assumption 2), we can obtain estimates for the Kd's of the compound-Aβ complexes from the x-intercept of the linear fits of the data for each compound.

[2] = target: T2, interaction of the aggregated Aβ peptide with a monoclonal anti-Aβ IgG (Homo sapiens, UniProt P05067); test: Semi-quantitative ELISA: inhibition of IgG-Aβ fibril interactions; type: binding; details: anti-Aβ IgG clone 6E10; for IC50: 50% inhibition of IgG-Aβ interactions; for Maximum % inhibition (ELISA): maximal percentage of IgG inhibited from binding to the fibrils
T2 construct: Aggregated Aβ peptides were generated from synthetic Aβ(1-42) peptides
T2 sequence (P05067 672-713 limits assumed): as above
Description: The association of the synthesized compounds with aggregated Aβ peptides was tested using a semi-quantitative ELISA based assay developed by Yang and co-workers. See P. Inbar, J. Yang, Bioorg. Med. Chem. Lett. 2006, 16:1076-1079; P. Inbar, C. Q. Li, S. A. Takayama, M. R. Bautista, J. Yang, ChemBioChem 2006, 7:1563-1566; P. Inbar, M. R. Bautista, S. A. Takayama, J. Yang, Anal. Chem. 2008, 80:3502-3506. The assay is based on screening for molecules that inhibit the interaction of the aggregated Aβ peptide with a monoclonal anti-Aβ IgG raised against residues 1-17 of Aβ. Table 4 provides the concentrations of the compounds corresponding to 50% inhibition (IC50) of the IgG-Aβ interactions as well as the maximal percentage of the IgG's inhibited from binding to the fibrils. […] The maximum inhibition, a measure of the extent of surface coating of the aggregated peptide by the compounds, was determined to be between 40-98% (Table 4). See P. Inbar, J. Yang, Bioorg. Med. Chem. Lett. 2006, 16:1076-1079; P. Inbar, C. Q. Li, S. A. Takayama, M. R. Bautista, J. Yang, ChemBioChem 2006, 7:1563-1566; P. Inbar, M. R. Bautista, S. A. Takayama, J. Yang, Anal. Chem. 2008, 80:3502-3506. […] Specifically, while the maximum inhibition is between 81-98% for the phenyl compounds, it decreases to 58% for the longer naphthalene compound 11 and to 40% for the more conjugated stilbene 19.
Aggregated Aβ peptides were generated from synthetic Aβ(1-42) peptides by dissolving 30 μg of peptide in 90 μL of nanopure water (pH 5-6) and incubating at 37° C. for ≧72 h without agitation. Each well of a 96-well plate (well volume 0.4 mL; clear, flat bottom polypropylene) was coated for 3 h at 25° C. with 50 μL of 1.3 μM solution of Aβ peptides in phosphate-buffered saline (PBS, 10 mM NaH2PO4/Na2HPO4, 138 mM NaCl, 2.7 mM KCl, pH 7.4). After removal of the excess sample, 50 μL solutions of compounds in PBS buffer (various concentrations were obtained by diluting a stock solution with PBS buffer) were incubated in the wells for 12 h. […] The excess solutions were then removed and all wells were blocked for 30 min by adding 300 μL of a 1% (w/v) solution of bovine serum albumin in PBS buffer (BSA/PBS). On occasion, an additional blocking step was performed prior to incubation with solutions of small molecules. The blocking solution was discarded and the wells were washed once with 300 μL of PBS buffer. Wells were incubated for 1 h with 50 μL of a 1.1 nM solution (in 1% BSA/PBS, dilution 1:6000) of anti-Aβ IgG (clone 6E10, monoclonal, mouse), followed by removal of the solution. The wells were washed twice with 300 μL of PBS buffer and incubated for 60 min with 50 μL of the secondary IgG (anti-mouse IgG H+L, polyclonal, rabbit) conjugated with alkaline phosphatase (6.8 nM in 1% BSA/PBS, dilution 1:1000). The solution was discarded, and the wells were washed twice with 300 μL PBS buffer. Bound secondary IgGs were detected by the addition of 50 μL of a p-nitrophenyl phosphate solution (2.7 mM, in 100 mM diethanol amine/0.5 mM magnesium chloride, pH 9.8). Absorbance intensities were determined at 405 nm using a UV-vis spectroscopic plate reader (Sprectramax 190, Molecular Devices, Sunnyvale, Calif.). Each run was performed five times and averaged. Error bars represent standard deviations. Graphs were plotted and fitted with the sigmoid curve fitting.

Row | Kd [1] [µM] | IC50 [2] | Maximum % inhibition (ELISA) [2] [%] | Structure (SMILES)
1 | 2.6 | 129 µM | 81 | COCCOCCOCCOC(=O)/C(C#N)=C/c1ccc(N(C)C)cc1 [Cmpd 8a, (E)-2-(2-(2-methoxyethoxyl)ethoxy)ethyl 2-cyano-3-(4-(dimethylamino)phenyl)acrylate]
2 | 3.3 | 82.1 µM | 79 | CN(C)c1ccc(/C=C(\C#N)C(=O)OCC(O)CO)cc1 (stereo not drawn) [Cmpd 14, (E)-2,3-dihydroxypropyl 2-cyano-3-(4-(dimethylamino)phenyl) acrylate]
3 | 5.3 | 1.17 µM and 1.2 µM | 92 | COCCOCCOCCOC(=O)/C(C#N)=C/c1ccc(N(C)C)cc1OC [Cmpd 8b, (E)-2-(2-(2-methoxyethoxyl)ethoxy)ethyl 2-cyano-3-(4-(dimethylamino)-2-methoxyphenyl)acrylate]
4 | 4.8 | 11.4 µM | 98 | CCN(CC)c1ccc(C=C(C#N)C(=O)OCCOCCOCCOC)cc1 (stereo in doubt) [Cmpd 8c, (Z)-2-(2-(2-methoxyethoxyl)ethoxy)ethyl 2-cyano-3-(4-(diethylamino)phenyl)acrylate]
5 | 2.5 | 74.3 µM | 58 | COCCOCCOCCOC(=O)/C(C#N)=C/c1ccc2cc(N3CCCCC3)ccc2c1 [Cmpd 11, (E)-2-(2-(2-methoxyethoxyl)ethoxy)ethyl-2-cyano-3-(6-(piperidin-1-yl)naphthalen-2-yl)acrylate]
6 | 4.4 | 90.6 µM | 91 | CCCCN(CCCC)c1ccc(C=C(C#N)C(=O)OCCOCCOCCOC)cc1 (stereo in doubt) [Cmpd 8d, (Z)-2-(2-(2-methoxyethoxyl)ethoxy)ethyl-2-cyano-3-(4-(dibutylamino)phenyl)acrylate]
